Results published in US5534242A, “Lidocaine-vasoconstrictor aerosol preparation” (priority 1995, dated 1996).
Where a name gives a salt, the structure may show the parent alone.

Columns and labels:
[1] = cited from earlier work
[2] = Solubilization of vasoconstricting agents in HFC propellants with lidocaine base; stability of the formulations; settings: for Behaviour of ethanol solution on addition of HFC-134a: ethanol solution also containing lidocaine free base; for Solubility in lidocaine base/HFC-134a solution: base form dissolved in ethanol (Formulations 11 and 12)
Experimental: The formulations of this invention can be manufactured in different ways. In one method, the lidocaine and vasoconstricting agent are dissolved in the organic solvent and place in the aluminum canister which is then capped and pressure filled with propellant. Where an organic solvent is not required, the lidocaine and vasoconstricting agent are dissolved in the propellant which is then pressure filled into the closed empty aluminum canister.
These formulations are presented for exemplary purposes only and by no means limit the scope and content of the invention defined by the claims.

nasal mucosa = settings: cited from earlier work

In the case of `OCc1ccccc1` [Benzyl alcohol], the “Solubility of organic solvent in HFC-134a” value (HFC-134a, no lidocaine) is reported as “not soluble”.
In the case of `COC(=O)[C@H]1[C@@H](OC(=O)c2ccccc2)C[C@@H]2CC[C@H]1N2C` [Cocaine], the “Dose that may cause systemic toxicity” value ([1]; even small doses) is listed as “approximately 30 mg” and the Tolerability ([1]; most patients) is listed as “well tolerated by most patients”.
In the case of `CCN(CC)CC(=O)Nc1c(C)cccc1C` [Lidocaine base, 2-(diethylamino)-2',6'-acetoxylidide], the “Behaviour of ethanol solution on addition of HFC-134a” value ([2]; HFC-134a) is given as “remained in solution” and the “Vasoconstriction of the mucosa” value (nasal mucosa) is given as “does not vasoconstrict the mucosa”.
In the case of `CNC[C@H](O)c1cccc(O)c1` [Phenylephrine], the “Decongestion of the nasal mucosa” value (nasal mucosa) is listed as “excellent decongestion”.
In the case of `COc1ccc(OC)c(C(O)C(C)N)c1` (stereo not shown) [methoxamine], the “Solubility in lidocaine base/HFC-134a solution” value [2] is reported as “readily soluble”.
With `CNC[C@H](O)c1cccc(O)c1` [phenylephrine base] the “Clear and stable solution with phenylephrine base substituted for the hydrochloride in formulation 9” value ([2]; diethylene glycol, lidocaine base, HFC-134a) was “Clear and stable solutions”.
For `CNC[C@H](O)c1cccc(O)c1` [phenylephrine hydrochloride, (R)-3-hydroxy-alpha-[(methylamino)methyl]benzene methanol hydrochloride], the “Behaviour of ethanol solution on addition of HFC-134a” value ([2]; HFC-134a) was “remained in solution”, the “Behaviour of ethyl alcohol solution on addition of HFC-134a” value (2.5% w/w in ethyl alcohol, HFC-134a, no lidocaine) was “precipitated out of solution” and the “Solubility in HFC propellants” value (HFC-134a and HFC-227, no lidocaine) was “insoluble”. The “Additional ethyl alcohol required to maintain a solution in HFC-134a in the absence of lidocaine base” value (HFC-134a, versus with lidocaine base, almost 50% more) was about 50%, the “Solubility of combination with benzyl alcohol in HFC-134a” value (benzyl alcohol + HFC-134a, no lidocaine) was “not soluble” and the “Solubility in benzyl alcohol” value (benzyl alcohol, HFC-134a added, no lidocaine) was “remained in solution”. For the same compound, the “Solubility in diethylene glycol” value (diethylene glycol) was “soluble”, the “Solubility of combination with diethylene glycol in HFC-134a” value (diethylene glycol + HFC-134a, no lidocaine) was “not soluble” and the “Solubility in propylene glycol” value (propylene glycol) was “soluble”. The “Solubility of combination with propylene glycol in HFC-134a” value (propylene glycol + HFC-134a, no lidocaine) was “not soluble”.
With `CC(N)C(O)c1ccccc1` (stereo not shown) [phenylpropanolamine] the “Solubility in lidocaine base/HFC-134a solution” value [2] was “readily soluble”.
